Assay results from ChEMBL document CHEMBL1201862, “PubChem BioAssay data set” (2004).
Active and inactive are the calls of the source.

Experiments:
Aminopeptidase N = target: T1, Aminopeptidase N (Plasmodium falciparum FcB1/Columbia, UniProt O96935); test: P. falciparum M1AAP inhibitors, biochemical, fluorogenic H-Leu-NHMec substrate, 1536-well (AID 1445); set-up: species or system Plasmodium falciparum 3D7, 3D7
T1 sequence (O96935 whole entry): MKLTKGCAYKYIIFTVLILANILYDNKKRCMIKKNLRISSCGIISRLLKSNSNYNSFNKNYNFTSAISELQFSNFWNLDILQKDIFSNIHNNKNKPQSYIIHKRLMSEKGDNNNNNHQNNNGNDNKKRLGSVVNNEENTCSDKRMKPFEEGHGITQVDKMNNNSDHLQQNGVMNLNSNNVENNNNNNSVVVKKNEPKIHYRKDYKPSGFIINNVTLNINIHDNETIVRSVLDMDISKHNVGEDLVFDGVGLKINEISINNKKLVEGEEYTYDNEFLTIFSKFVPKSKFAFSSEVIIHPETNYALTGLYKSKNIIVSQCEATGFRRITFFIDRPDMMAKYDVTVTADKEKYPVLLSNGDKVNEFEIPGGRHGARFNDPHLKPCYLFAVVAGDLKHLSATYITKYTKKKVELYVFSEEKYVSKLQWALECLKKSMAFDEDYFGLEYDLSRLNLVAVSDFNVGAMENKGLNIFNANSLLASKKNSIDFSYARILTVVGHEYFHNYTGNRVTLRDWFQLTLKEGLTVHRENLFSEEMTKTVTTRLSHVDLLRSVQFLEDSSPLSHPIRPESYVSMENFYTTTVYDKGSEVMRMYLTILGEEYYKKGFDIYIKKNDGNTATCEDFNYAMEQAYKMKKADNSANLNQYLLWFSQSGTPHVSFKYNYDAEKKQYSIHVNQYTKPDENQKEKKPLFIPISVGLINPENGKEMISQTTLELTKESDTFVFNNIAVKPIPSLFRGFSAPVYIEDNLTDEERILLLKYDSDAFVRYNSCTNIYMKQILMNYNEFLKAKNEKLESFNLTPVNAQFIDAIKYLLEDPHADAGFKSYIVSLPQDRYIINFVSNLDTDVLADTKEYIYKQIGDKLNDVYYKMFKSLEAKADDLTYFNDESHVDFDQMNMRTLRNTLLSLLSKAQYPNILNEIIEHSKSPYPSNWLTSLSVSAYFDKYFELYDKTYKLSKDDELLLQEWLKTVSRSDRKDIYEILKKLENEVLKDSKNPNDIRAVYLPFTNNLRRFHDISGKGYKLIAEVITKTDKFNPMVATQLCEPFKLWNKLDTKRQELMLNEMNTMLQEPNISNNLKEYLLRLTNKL

Leucine aminopeptidase = target: T2, Leucine aminopeptidase (Plasmodium falciparum 3D7, UniProt Q8IL11); test: P. falciparum M17LAP inhibitors, primary screen, biochemical, fluorogenic H-Leu-NHMec substrate, 1536-well (AID 1619); assay type: functional
T2 sequence (Q8IL11 whole entry): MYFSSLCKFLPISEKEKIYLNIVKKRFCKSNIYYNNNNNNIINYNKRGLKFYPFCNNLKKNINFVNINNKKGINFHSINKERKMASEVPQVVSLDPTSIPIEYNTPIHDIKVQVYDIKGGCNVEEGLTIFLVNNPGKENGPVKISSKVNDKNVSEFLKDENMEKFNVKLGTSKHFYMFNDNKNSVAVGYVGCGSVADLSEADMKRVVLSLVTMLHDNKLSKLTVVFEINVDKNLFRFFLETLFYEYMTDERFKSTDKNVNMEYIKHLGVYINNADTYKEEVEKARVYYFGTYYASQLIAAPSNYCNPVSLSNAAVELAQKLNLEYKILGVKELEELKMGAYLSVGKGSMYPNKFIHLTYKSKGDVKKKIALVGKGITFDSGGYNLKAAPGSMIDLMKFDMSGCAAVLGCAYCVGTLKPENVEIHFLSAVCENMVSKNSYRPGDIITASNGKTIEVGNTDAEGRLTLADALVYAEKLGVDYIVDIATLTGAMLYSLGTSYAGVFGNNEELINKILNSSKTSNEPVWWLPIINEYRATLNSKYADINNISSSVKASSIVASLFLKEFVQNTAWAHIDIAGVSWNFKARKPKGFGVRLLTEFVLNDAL

Cytochrome P450 3A4 = Cytochrome P450 3A4 (Homo sapiens, UniProt P08684); settings: Potency;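 also: confirmatory qHTS run detecting inhibitors and substrates of CYP3A4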
[1] = target: T3, Ubiquitin-conjugating enzyme E2 N (Homo sapiens, UniProt P61088); assay type: functional;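 also: Dose-response confirmation in a TR-FRET assay detecting UBC13-driven polyubiquitin chain formation, inhibition measured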
T3 sequence (P61088 whole entry): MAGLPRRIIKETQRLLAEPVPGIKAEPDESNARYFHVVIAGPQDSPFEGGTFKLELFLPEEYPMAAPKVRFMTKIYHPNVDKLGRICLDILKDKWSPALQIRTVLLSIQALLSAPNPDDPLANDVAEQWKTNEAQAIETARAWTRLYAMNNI

[2] = HEp-2 cell cytotoxicity, dose response, cytotoxicity control for RSV inhibitor project, HTS (AID 2410); assay type: functional; settings: human respiratory syncytial virus
[3] = target: Glyceraldehyde-3-phosphate dehydrogenase (Homo sapiens, UniProt P04406)
Vero = test: cells; assay type: functional; settings: Chlorocebus sabaeus
[4] = target: Nucleotide-binding oligomerization domain-containing protein 2 (Homo sapiens, UniProt Q9HC29); test: NOD2 signaling inhibitors, cell-based, luminescence, uHTS, HEK293 (AID 1566); assay type: functional
HEK293 [5] = test: cells; assay type: functional, cell-based; settings: Homo sapiens
HEK293 [6] = test: cells; assay type: functional, cell-based; settings: Homo sapiens; remark: listed apart in the source
HEK293 [7] = test: NOD1 signaling inhibitors, primary screen, cell-based, luminescence, uHTS (AID 1578); assay type: functional; settings: Homo sapiens
[8] = target: T4, RNA-binding protein pos-1 (Caenorhabditis elegans, UniProt G5EF15); test: inhibitors of POS-1/mex-3 RNA binding, dose response, biochemical, fluorescence polarization (AID 1964);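 also: purified POS-1 fused to maltose binding protein made in E. coli; potency of compounds blocking POS-1 binding to fluorescent RNA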
T4 sequence (G5EF15 whole entry): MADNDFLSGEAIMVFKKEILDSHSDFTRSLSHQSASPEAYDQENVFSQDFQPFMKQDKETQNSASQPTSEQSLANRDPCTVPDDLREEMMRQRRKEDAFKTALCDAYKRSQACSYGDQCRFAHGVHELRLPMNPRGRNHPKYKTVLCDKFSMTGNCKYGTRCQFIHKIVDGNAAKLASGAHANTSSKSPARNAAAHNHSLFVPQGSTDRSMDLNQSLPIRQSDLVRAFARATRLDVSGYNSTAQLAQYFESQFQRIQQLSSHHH

HEK293 [9] = test: NOD2 signaling inhibitors in MDP-stimulated cells, cell-based, uHTS, luminescence (AID 2001); assay type: functional; settings: Homo sapiens
HEK293 [10] = test: cells; assay type: functional, cell-based; settings: Homo sapiens; remark: listed apart in the source

Cytochrome P450 3A4, sequence (P08684 whole entry): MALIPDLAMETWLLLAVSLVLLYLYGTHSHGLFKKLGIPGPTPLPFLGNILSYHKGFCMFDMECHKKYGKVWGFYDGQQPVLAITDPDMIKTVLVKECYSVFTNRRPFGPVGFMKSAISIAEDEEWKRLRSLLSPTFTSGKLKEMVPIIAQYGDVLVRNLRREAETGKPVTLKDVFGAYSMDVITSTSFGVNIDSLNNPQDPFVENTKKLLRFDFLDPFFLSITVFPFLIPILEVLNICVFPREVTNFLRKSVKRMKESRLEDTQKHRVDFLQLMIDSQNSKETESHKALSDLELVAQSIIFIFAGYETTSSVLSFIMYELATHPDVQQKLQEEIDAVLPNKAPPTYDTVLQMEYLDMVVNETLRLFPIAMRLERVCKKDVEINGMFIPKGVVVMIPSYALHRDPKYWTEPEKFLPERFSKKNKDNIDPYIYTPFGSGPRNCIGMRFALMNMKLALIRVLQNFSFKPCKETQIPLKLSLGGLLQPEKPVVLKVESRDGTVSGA
Glyceraldehyde-3-phosphate dehydrogenase, sequence (P04406 whole entry): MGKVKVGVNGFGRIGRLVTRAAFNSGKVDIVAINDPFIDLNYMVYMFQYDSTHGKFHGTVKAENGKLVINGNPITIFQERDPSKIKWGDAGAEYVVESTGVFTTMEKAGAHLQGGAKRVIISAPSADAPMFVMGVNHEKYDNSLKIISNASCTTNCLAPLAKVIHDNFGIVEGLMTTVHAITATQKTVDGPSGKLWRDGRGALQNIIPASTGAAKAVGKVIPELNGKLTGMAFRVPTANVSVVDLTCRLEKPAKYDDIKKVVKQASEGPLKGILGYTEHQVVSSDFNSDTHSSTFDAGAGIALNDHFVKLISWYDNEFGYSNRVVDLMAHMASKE
Nucleotide-binding oligomerization domain-containing protein 2, sequence (Q9HC29 whole entry, the tested form may be a part): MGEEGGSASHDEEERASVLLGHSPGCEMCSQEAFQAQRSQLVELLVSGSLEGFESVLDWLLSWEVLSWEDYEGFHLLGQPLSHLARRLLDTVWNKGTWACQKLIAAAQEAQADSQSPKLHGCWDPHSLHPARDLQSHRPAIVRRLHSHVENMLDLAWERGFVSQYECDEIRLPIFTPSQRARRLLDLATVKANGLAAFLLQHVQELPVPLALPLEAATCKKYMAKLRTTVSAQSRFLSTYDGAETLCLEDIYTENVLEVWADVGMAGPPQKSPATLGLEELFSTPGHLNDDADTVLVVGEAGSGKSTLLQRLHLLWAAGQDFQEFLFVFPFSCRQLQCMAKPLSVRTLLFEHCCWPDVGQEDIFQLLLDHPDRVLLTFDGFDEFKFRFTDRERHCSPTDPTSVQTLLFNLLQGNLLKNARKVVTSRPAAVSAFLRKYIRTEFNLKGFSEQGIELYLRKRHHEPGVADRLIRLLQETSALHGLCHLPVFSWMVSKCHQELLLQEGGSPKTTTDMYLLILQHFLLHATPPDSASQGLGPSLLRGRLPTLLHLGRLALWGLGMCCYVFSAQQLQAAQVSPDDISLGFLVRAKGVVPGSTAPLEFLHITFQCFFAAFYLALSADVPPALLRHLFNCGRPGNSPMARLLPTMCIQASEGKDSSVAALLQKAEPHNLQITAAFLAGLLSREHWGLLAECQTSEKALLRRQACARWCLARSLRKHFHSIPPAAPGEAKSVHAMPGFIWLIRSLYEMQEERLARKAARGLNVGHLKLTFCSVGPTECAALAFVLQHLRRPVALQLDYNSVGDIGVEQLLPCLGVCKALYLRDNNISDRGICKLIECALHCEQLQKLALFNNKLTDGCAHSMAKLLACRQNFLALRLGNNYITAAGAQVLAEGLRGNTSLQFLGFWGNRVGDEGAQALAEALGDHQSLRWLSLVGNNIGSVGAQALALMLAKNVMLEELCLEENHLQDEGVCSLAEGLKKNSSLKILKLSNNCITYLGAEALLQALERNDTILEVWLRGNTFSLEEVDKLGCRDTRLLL

C=CCSc1nnc(NC(=O)c2nc(SCC)ncc2Cl)s1
IC50 (Aminopeptidase N): 94.3 µM (active)
IC50 (Leucine aminopeptidase): 10.8 µM (active)

COc1ccc(C(=O)CC(=O)c2c(O)cc(OC)cc2OC)cc1
AC50 (Cytochrome P450 3A4): 3.98 µM (inconclusive)

COc1ccccc1NC(=O)c1cc(S(=O)(=O)NCc2ccccc2)ccc1F
IC50 [1]: > 20 µM (inactive)

Cc1cccc2c3c(ccc12)C1=C(C(=O)C3=O)C(C)CO1 (stereo not drawn)
AC50 (Cytochrome P450 3A4): 12.6 µM (inconclusive)

COc1ccc(-n2c(C)cc(/C=C3\C(=N)N4N=C(CC(=O)N5CCOCC5)SC4=NC3=O)c2C)c(OC)c1
CC50 [2]: 11.1 µM (active)
IC50 (cells): 11.7 µM (active)

O=C1C(Cl)=C(N2CCN(CCO)CC2)C(=O)N1c1ccc(C(F)(F)F)cc1
IC50 [3]: > 50 µM (inconclusive)

CCOC(=O)C1=C(COCCN)N=C(C)/C(=C(/O)OC)C1c1ccccc1Cl (stereo not drawn)
IC50 [1]: > 20 µM (inactive)
CC50 (Vero): > 25 µM (active)

CCN(CC)C(=O)c1cc(-c2ccc(Cl)cc2Cl)n[nH]1
IC50 [3]: > 10 µM (inconclusive)

CCOc1cc(/C=C2\C(=N)N3N=C(S(C)(=O)=O)SC3=NC2=O)ccc1OCCOc1cccc(OC)c1
EC50 [4]: 14.5 µM (active)
IC50 (HEK293 [5]): > 20 µM (inactive)
IC50 (HEK293 [6]): > 20 µM (inactive)
EC50 (HEK293 [7]): > 20 µM (inactive)
EC50 [8]: > 300 µM (not active)
IC50 (HEK293 [9]): > 20 µM (inactive)
IC50 (HEK293 [10]): > 20 µM (inactive)
